In ChEMBL document CHEMBL4665792 (J Med Chem, 2020):
Activity calls are given as the source filed them. No cut-off for these calls is given here.

Key:
HT-29 [1] = assay: Antiproliferative activity against human HT-29 cells assessed as reduction in cell viability incubated for 24 hrs by MTT assay; format: functional, cell-based; settings: HT-29, 24 h
HCT-116 [2] = assay: Antiproliferative activity against human HCT-116 cells assessed as reduction in cell viability incubated for 24 hrs by MTT assay; format: functional, cell-based; settings: HCT-116, 24 h
HepG2 = assay: Antiproliferative activity against human HepG2 cells assessed as reduction in cell viability incubated for 24 hrs by MTT assay; format: functional, cell-based; settings: HepG2, 24 h
MCF7 = assay: Antiproliferative activity against human MCF7 cells assessed as reduction in cell viability incubated for 24 hrs by MTT assay; format: functional, cell-based; settings: MCF7, 24 h
L02 = assay: Cytotoxicity against human L02 cells assessed as cell viability incubated for 24 hrs by MTT assay; format: cell-based; settings: L02, 24 h
HK-2 = assay: Cytotoxicity against human HK2 cells assessed as cell viability incubated for 24 hrs by MTT assay; format: cell-based; settings: HK-2, 24 h
[3] = Inhibition of TrxR (unknown origin) in presence of NADPH by Ellman's method; parameters: species or system Homo sapiens
[4] = Inhibition of Escherichia coli Trx incubated for 1.5 hrs in presence of DTT and insulin
[5] = Inhibition of TrxR in human HT-29 cells incubated for 30 mins in presence of insulin, NADPH and Trx by DTNB reagent based assay; format: cell-based
[6] = Inhibition of TrxR in human HT-29 cells incubated for 60 mins in presence of insulin, NADPH and Trx by DTNB reagent based assay; format: cell-based
[7] = Inhibition of TrxR in human HT-29 cells incubated for 90 mins in presence of insulin, NADPH and Trx by DTNB reagent based assay; format: cell-based
[8] = Covalent inhibition of TrxR (unknown origin) assessed as covalent bond formation incubated up to 30 mins in presence of NADPH by Ellman's method; parameters: species or system Homo sapiens
HT-29 [9] = assay: Inhibition of TrxR in human HT-29 cells incubated for 24 hrs in presence of insulin, NADPH and Trx by DTNB reagent based assay; format: cell-based
[10] = biological target: T1, Thioredoxin (Homo sapiens) (UniProt P10599); assay: Inhibition of Trx in human HT-29 cells incubated for 24 hrs in presence of insulin, NADPH and DTT; format: cell-based
T1 sequence (whole entry): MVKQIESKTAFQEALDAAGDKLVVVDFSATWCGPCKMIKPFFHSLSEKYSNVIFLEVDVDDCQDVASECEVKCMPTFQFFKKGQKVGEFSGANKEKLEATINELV

[11] = biological target: T2, Glutathione reductase, mitochondrial (Homo sapiens) (UniProt P00390); assay: Inhibition of GR in human HT-29 cells incubated for 24 hrs in presence of GSSG and NADPH; format: cell-based
T2 sequence (whole entry): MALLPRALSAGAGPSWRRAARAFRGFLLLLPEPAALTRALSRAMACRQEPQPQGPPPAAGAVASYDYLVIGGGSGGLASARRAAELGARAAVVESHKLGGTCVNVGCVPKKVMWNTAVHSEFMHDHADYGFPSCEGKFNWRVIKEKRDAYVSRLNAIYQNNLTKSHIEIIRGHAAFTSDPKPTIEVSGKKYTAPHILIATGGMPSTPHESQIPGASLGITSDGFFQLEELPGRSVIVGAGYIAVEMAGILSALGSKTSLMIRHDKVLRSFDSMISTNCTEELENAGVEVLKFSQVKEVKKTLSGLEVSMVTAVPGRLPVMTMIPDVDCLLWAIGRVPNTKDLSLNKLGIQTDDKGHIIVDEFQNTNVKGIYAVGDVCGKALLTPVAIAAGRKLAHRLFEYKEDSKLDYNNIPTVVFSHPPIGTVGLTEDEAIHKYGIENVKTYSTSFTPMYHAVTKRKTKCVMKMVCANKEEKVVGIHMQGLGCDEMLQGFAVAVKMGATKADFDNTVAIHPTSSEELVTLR

HT-29 [12] = assay: Inhibition of GPx in human HT-29 cells incubated for 24 hrs in presence of GSH, NADPH and GR measured at 10 secs interval for 4 mins; format: cell-based; settings: time 1444.0 min
Homo sapiens = organism: Homo sapiens; assay: Inhibition of TrxR (unknown origin) at 5 uM in presence of NADPH by Ellman's method
HT-29 [13] = assay: Down regulation of Trx expression in human HT29 cells at 0.25 to 1 uM incubated for 24 hrs by Western blot analysis; format: functional, cell-based
HT-29 [14] = assay: Down regulation of TrxR expression in human HT29 cells at 0.25 to 1 uM incubated for 24 hrs by Western blot analysis; format: functional, cell-based
HT-29 [15] = assay: Inhibition of TrxR in human HT29 cells assessed as decrease in ASK1 to phosphorylated ASK1 expression ratio at 0.25 to 1 uM incubated for 24 hrs by Western blot analysis; format: cell-based
HT-29 [16] = assay: Inhibition of TrxR in human HT29 cells assessed as increase in p53 to GAPDH expression ratio at 0.25 to 1 uM incubated for 24 hrs by Western blot analysis; format: cell-based
HT-29 [17] = assay: Inhibition of TrxR in human HT-29 cells assessed as increase in production of intracellular ROS incubated for 24 hrs by DCFH-DA staining-based flow cytometric analysis; format: cell-based
HCT-116 [18] = assay: Inhibition of TrxR in human HCT-116 cells assessed as increase in production of intracellular ROS incubated for 24 hrs by DCFH-DA staining-based flow cytometric analysis; format: cell-based
HT-29 [19] = assay: Antiproliferation activity against human HT-29 cells assessed as reduction in monoclonal ability incubated for 24 hrs followed by fresh medium supplementation every 2 to 3 days for 14 days by crystal violet staining based analysis; format: functional, cell-based; settings: dose microM 0.015-0.06, time 24.0 hrs
HT-29 [20] = assay: Antiproliferation activity against human HT-29 cells assessed as decrease in number of EdU-positive cells at 0.125 to 0.5 uM incubated for 20 hrs followed by addition of EdU-labelling agent measured after 8 hrs by Hoechst-33258 staining based analysis; format: functional, cell-based; settings: dose microM 0.125-0.500, time 28.0 hrs
HT-29 [21] = assay: Cell cycle arrest in human HT-29 cells assessed as accumulation at G2/M phase incubated for 24 hrs by propidium iodide staining based flow cytometry; format: functional; settings: dose microM 0.125-0.5, time 24.0 hrs
HT-29 [22] = assay: Induction of apoptosis in human HT-29 cells assessed as cell death at 0.25 to 1 uM incubated for 24 hrs by Annexin V-FITC/propidium iodide staining based flow cytometry; format: functional
HT-29 [23] = assay: Induction of mitochondrial membrane potential loss in human HT-29 cells assessed as decrease in red to green fluorescence intensity ratio at 0.125 to 1 uM incubated for 24 hrs by JC-1 dye based fluorescence spectrophotometric analysis; format: functional, cell-based; settings: dose microM 0.125-1, time 24.0 hrs
HT-29 [24] = assay: Induction of apoptosis in human HT-29 cells assessed as decrease in expression of Bcl-2 at 0.25 to 1 uM treated for 24 hrs by Western blot analysis; format: functional, cell-based
HT-29 [25] = assay: Induction of apoptosis in human HT-29 cells assessed as increase in expression of Bax at 0.25 to 1 uM treated for 24 hrs by Western blot analysis; format: functional, cell-based
HT-29 [26] = assay: Induction of apoptosis in human HT-29 cells assessed as increase in expression of cleaved caspase-3 at 0.25 to 1 uM treated for 24 hrs by western blot analysis; format: functional, cell-based
HT-29 [27] = assay: Induction of apoptosis in human HT-29 cells assessed as increase in expression of cleaved PARP at 0.25 to 1 uM treated for 24 hrs by Western blot analysis; format: functional, cell-based
[28] = Selectivity index, ratio IC50 for human L02 cells to IC50 for human HT-29 cells; format: toxicity; settings: L02 cells versus HT-29 cells, read-out: Ratio IC50
[29] = Selectivity index, ratio IC50 for human HK2 cells to IC50 for human HT-29 cells
Rattus norvegicus [30] = organism: Rattus norvegicus; assay: Binding affinity to rat liver TrxR assessed as SGGDILQSGCUG-adduct formation by measuring retention time at 10 uM incubated for 1.5 hrs by LC-MS/MS analysis
Rattus norvegicus [31] = organism: Rattus norvegicus; assay: Binding affinity to rat liver TrxR assessed as RSGGDILQSGCUG-adduct formation by measuring retention time at 10 uM incubated for 1.5 hrs by LC-MS/MS analysis
[32] = Binding affinity to NAC assessed as sulfhydryl group-adduct formation at 5 mg by online NMR analysis
[33] = Binding affinity to NAC assessed as sulfhydryl group-adduct formation at 5 mg incubated for 1.5 hrs by LC-MS/MS analysis
[34] = Binding affinity to DTT assessed as sulfhydryl group-adduct formation at 5 mg incubated for 1.5 hrs by LC-MS/MS analysis
HT-29 [35] = assay: Binding affinity to sulfhydryl group in human HT-29 cells assessed as decrease in total content of sulfhydryl groups; format: cell-based
HT-29 [36] = assay: Potency index, ratio of Withangulatin A IC50 to test compound IC50 for antiproliferative activity against human HT-29 cells assessed as reduction in cell viability; format: functional

Compound: CC(=O)O[C@H]1C=C([C@H](C)[C@H]2CC(C)=C(C)C(=O)O2)[C@@]2(C)CC[C@H]3[C@@H](C[C@H]4O[C@]45[C@@H](O)C=CC(=O)[C@]35C)[C@]12O
- IC50 (HT-29 [1]): 2.48 µM
- IC50 (HCT-116 [2]): 2.37 µM
- IC50 (HepG2): 2.85 µM
- IC50 (MCF7): 6.32 µM
- IC50 (L02): 8.21 µM
- IC50 (HK-2): 6.41 µM
- IC50 [3]: 2.64 µM
- IC50 [4]: > 2.5 µM
- IC50 [5]: 4.92 µM
- IC50 [6]: 3.35 µM
- IC50 [7]: 2.64 µM
- Ki [8]: 9.12 µM
- inhibition (HT-29 [9]): Active
- inhibition [10]: Active
- inhibition [11]: Active
- inhibition (HT-29 [12]): Active

Compound: CC(=O)O[C@H]1C=C([C@H](C)[C@H]2CC(C)=C(C)C(=O)O2)[C@@]2(C)CC[C@H]3[C@@H](C[C@H]4O[C@]45[C@@H](OC(=O)/C=C/C(=O)N(C)C)C=CC(=O)[C@]35C)[C@]12O
- IC50 (HT-29 [1]): 0.08 µM
- IC50 (HCT-116 [2]): 0.13 µM
- IC50 (HepG2): 0.11 µM
- IC50 (MCF7): 0.33 µM
- IC50 (L02): 5.25 µM
- IC50 (HK-2): 4.53 µM
- inhibition (Homo sapiens): Active
- IC50 [3]: 0.85 µM
- IC50 [4]: > 2.5 µM
- IC50 [5]: 0.97 µM
- IC50 [6]: 0.87 µM
- IC50 [7]: 0.85 µM
- Ki [8]: 0.932 µM
- Activity (HT-29 [13]): Active
- Activity (HT-29 [14]): Active
- inhibition (HT-29 [15]): Active
- inhibition (HT-29 [16]): Active
- inhibition (HT-29 [17]): Dose-dependent effect
- inhibition (HCT-116 [18]): Dose-dependent effect
- Activity (HT-29 [19]): Dose-dependent effect
- Activity (HT-29 [20]): Active
- Activity (HT-29 [21]): Dose-dependent effect
- Activity (HT-29 [22]): Active
- Activity (HT-29 [23]): Active
- Activity (HT-29 [24]): Active
- Activity (HT-29 [25]): Active
- Activity (HT-29 [26]): Active
- Activity (HT-29 [27]): Active
- selectivity ratio [28]: 66
- Ratio IC50 [29]: 56
- inhibition (HT-29 [9]): Active
- inhibition [10]: Active
- inhibition [11]: Active
- inhibition (HT-29 [12]): Active
- Retention time (Rattus norvegicus [30]): 31.7 min
- Retention time (Rattus norvegicus [31]): 33.9 min
- Activity [32]: Active
- Activity [33]: Active
- Activity [34]: Active
- Activity (HT-29 [35]): Active
- Ratio IC50 (HT-29 [36]): 30
